Source: US20240409556A1, “BENZOPIPERAZINE AND RELATED ANALOGS FOR INHIBITING YAP/TAZ-TEAD” (Springworks Therapeutics, Inc., priority 2023, published 2024)

Columns and labels:
Type in all cases: cell-based
[1] = system: NCI-H226 mesothelioma cell line; test: Mesothelioma cell line proliferation assay, NCI-H226 (ATPlite); details: NCI-H226 cells, 6 days with compound, cell viability by ATPlite
Experimental: (§1) Example 57: Activity of Compounds of the Disclosure in Mesothelioma Cell Line Proliferation Assays
(§2) Mesothelioma cell lines, NCI-H226 and NCI-H2052 (both sourced from the ATCC cell culture collection) were plated in 96-well plates (Corning® 96 Well White Polystyrene Microplate clear flat bottom, white polystyrene (TC-Treated)), at 1500 cells/well in full medium (RPMI 1640 ATCC modification with L-glutamine, HEPES, Phenol Red, Sodium Pyruvate, High glucose, Low sodium bicarbonate and 10% fetal bovine serum). Cells were incubated overnight at 37° C. in an incubator with 5% CO2. Then compounds, dissolved in DMSO, were added in dose-response. Cells were incubated with compound dilutions for another 6 days at 37° C. in an incubator with 5% CO2. Cell viability was quantitated using the ATPlite kit (Perkin-Elmer) and the luminescence was read-out using an Envision instrument (Perkin-Elmer). The amount of relative light units produced using the ATPlite kit was used to calculate percent of inhibition.
(§3) The activities of some example compounds are depicted in Table 4. The activity ranges A, B and C refer to EC50 values in the mesothelioma cell line proliferation assay as described as follows: “A”: EC50<1 μM; “B”: 1 μM≤EC50≤10 μM and “C”: EC50>10 μM; NT: not tested.

[2] = system: YAP/TAZ-TEAD transcription; test: Reporter gene assay for measuring the inhibition of YAP/TAZ-TEAD transcription (TEAD-responsive element luciferase reporter in Hek293T cells); details: 24 hours incubation
How it was run: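 HEK293T cells transiently transfected with a TEAD-responsive luciferase reporter were exposed to compounds for 24 h at 37° C/5% CO2, then luminescence was read. Percent inhibition normalised to vehicle (0%) and positive-control inhibitor (100%); IC50 derived.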

[3] = system: NCI-H2052 mesothelioma cell line; test: Mesothelioma cell line proliferation assay, NCI-H2052 (ATPlite); details: NCI-H2052 cells, 6 days with compound, cell viability by ATPlite
Experimental: as §1, §2, §3

C=CC(=O)NC[C@@H]1CN(c2ccc(C(F)(F)F)cc2)c2cccnc2N1 [38-En2, (R)-N-((1-(4-(trifluoromethyl)phenyl)-1,2,3,4-tetrahydropyrido[2,3-b]pyrazin-3-yl)methyl)acrylamide]
EC50 ([1]; Homo sapiens, 144 h): < 1000 nM | IC50 ([2]; Homo sapiens, HEK-293T, 24 h): < 1000 nM | EC50 ([3]; Homo sapiens, 144 h): < 1000 nM

CC(C)C(=O)N1CCN2c3ncccc3N(c3ccc(C(F)(F)F)cc3)CC2C1 (single isomer, unassigned) [47-En1, (R)- or (S)-2-methyl-1-(5-(4-(trifluoromethyl)phenyl)-5,6,6a,7,9,10-hexahydro-8H-pyrazino[1,2-a]pyrido[3,2-e]pyrazin-8-yl)propan-1-one]
EC50 ([1]; Homo sapiens, 144 h): < 1000 nM | IC50 [2]: < 1000 nM | EC50 ([3]; Homo sapiens, 144 h): < 1000 nM

CS(=O)(=O)N[C@@H]1C[C@@H]2CN(c3ccc(C(F)(F)F)cc3)c3cccnc3N2C1 [compound 85, N-((6aR,8R)-5-(4-(trifluoromethyl)phenyl)-5,6,6a,7,8,9-hexahydropyrido[3,2-e]pyrrolo[1,2-a]pyrazin-8-yl)methanesulfonamide]
EC50 ([1]; Homo sapiens, 144 h): 1000 to 10000 nM | IC50 ([2]; Homo sapiens, HEK-293T, 24 h): < 1000 nM | EC50 ([3]; Homo sapiens, 144 h): > 10000 nM

CC(=O)N1CCN2c3ccccc3N(c3ccc(C(F)(F)F)cc3)CC2C1 (stereo not drawn) [compound 15, 1-(6-(4-(trifluoromethyl)phenyl)-1,2,4,4a,5,6-hexahydro-3H-pyrazino[1,2-a]quinoxalin-3-yl)ethan-1-one]
EC50 ([1]; Homo sapiens, 144 h): < 1000 nM | IC50 ([2]; Homo sapiens, HEK-293T, 24 h): < 1000 nM | EC50 ([3]; Homo sapiens, 144 h): < 1000 nM

CNS(=O)(=O)N1CCN2c3ccccc3N(c3ccc(C(F)(F)F)cc3)CC2C1 (stereo not drawn) [compound 32, N-methyl-6-(4-(trifluoromethyl)phenyl)-1,2,4,4a,5,6-hexahydro-3H-pyrazino[1,2-a]quinoxaline-3-sulfonamide]
EC50 ([1]; Homo sapiens, 144 h): < 1000 nM | IC50 ([2]; Homo sapiens, HEK-293T, 24 h): < 1000 nM | EC50 ([3]; Homo sapiens, 144 h): < 1000 nM

C=CC(=O)NCC1CN(c2ccc(C(F)(F)F)cc2)c2ccccc2N1CC#N (stereo not drawn) [compound 3, N-((1-(cyanomethyl)-4-(4-(trifluoromethyl)phenyl)-1,2,3,4-tetrahydroquinoxalin-2-yl)methyl)acrylamide]
EC50 ([1]; Homo sapiens, 144 h): < 1000 nM | IC50 ([2]; Homo sapiens, HEK-293T, 24 h): < 1000 nM | EC50 ([3]; Homo sapiens, 144 h): < 1000 nM

C=CC(=O)NCC1CN(c2ccc(C(F)(F)F)cc2)c2ccccc2N1CCC(N)=O (stereo not drawn) [compound 13, N-((1-(3-amino-3-oxopropyl)-4-(4-(trifluoromethyl)phenyl)-1,2,3,4-tetrahydroquinoxalin-2-yl)methyl)acrylamide]
EC50 ([1]; Homo sapiens, 144 h): < 1000 nM | IC50 ([2]; Homo sapiens, HEK-293T, 24 h): < 1000 nM | EC50 ([3]; Homo sapiens, 144 h): < 1000 nM

C=CC(=O)NCC1CN(c2ccc(C(F)(F)F)cc2)c2ccccc2O1 (stereo not drawn) [compound 35, N-((4-(4-(trifluoromethyl)phenyl)-3,4-dihydro-2H-benzo[b][1,4]oxazin-2-yl)methyl)acrylamide]
EC50 ([1]; Homo sapiens, 144 h): < 1000 nM | IC50 ([2]; Homo sapiens, HEK-293T, 24 h): < 1000 nM | EC50 ([3]; Homo sapiens, 144 h): < 1000 nM

CC(=O)NCC1CN(c2ccc(C(F)(F)F)cc2)c2cccnc2O1 (single isomer, unassigned) [49-En1, (R)- or (S)-N-((1-(4-(trifluoromethyl)phenyl)-2,3-dihydro-1H-pyrido[2,3-b][1,4]oxazin-3-yl)methyl)acetamide]
EC50 ([1]; Homo sapiens, 144 h): < 1000 nM | IC50 [2]: < 1000 nM | EC50 ([3]; Homo sapiens, 144 h): < 1000 nM

O=C(O)[C@@H]1C[C@@H]2CN(c3ccc(C(F)(F)F)cc3)c3cccnc3N2C1 [compound 102, (6aR,8R)-5-(4-(trifluoromethyl)phenyl)-5,6,6a,7,8,9-hexahydropyrido[3,2-e]pyrrolo[1,2-a]pyrazine-8-carboxylic acid]
EC50 ([1]; Homo sapiens, 144 h): < 1000 nM | IC50 ([2]; Homo sapiens, HEK-293T, 24 h): < 1000 nM | EC50 ([3]; Homo sapiens, 144 h): < 1000 nM

Cc1ccc2c(n1)N1CCC(C(=O)O)CC1CN2c1ccc(C(F)(F)F)cc1 [101-D4, (6aS,8S)— or (6aR,8S)— or (6aR,8R)— or (6aS,8R)-2-methyl-5-(4-(trifluoromethyl)phenyl)-6,6a,7,8,9,10-hexahydro-5H-dipyrido[1,2-a:3′,2′-e]pyrazine-8-carboxylic acid]
EC50 [1]: < 1000 nM | IC50 [2]: < 1000 nM | EC50 [3]: < 1000 nM

CC(=O)N1CCN2c3ncccc3N(c3ccc(C(F)(F)F)cc3)CC2C1 (single isomer, unassigned) [29-En1, (R)- or (S)-1-(5-(4-(trifluoromethyl)phenyl)-5,6,6a,7,9,10-hexahydro-8H-pyrazino[1,2-a]pyrido[3,2-e]pyrazin-8-yl)ethan-1-one]
EC50 ([1]; Homo sapiens, 144 h): < 1000 nM | IC50 ([2]; Homo sapiens, HEK-293T, 24 h): < 1000 nM | EC50 ([3]; Homo sapiens, 144 h): < 1000 nM

CNS(=O)(=O)N1CCN2c3ncccc3N(c3ccc(C(F)(F)F)cc3)CC2C1 (single isomer, unassigned) [45-En2, (R)- or (S)-N-methyl-5-(4-(trifluoromethyl)phenyl)-5,6,6a,7,9,10-hexahydro-8H-pyrazino[1,2-a]pyrido[3,2-e]pyrazine-8-sulfonamide]
EC50 ([1]; Homo sapiens, 144 h): < 1000 nM | IC50 [2]: < 1000 nM | EC50 ([3]; Homo sapiens, 144 h): < 1000 nM

CC(=O)N1CCN2c3ccccc3N(c3ccc(C(F)(F)F)cc3)CC2C1 (single isomer, unassigned) [15-En2, (R)- or (S)-1-(6-(4-(trifluoromethyl)phenyl)-1,2,4,4a,5,6-hexahydro-3H-pyrazino[1,2-a]quinoxalin-3-yl)ethan-1-one]
EC50 [1]: < 1000 nM | IC50 [2]: < 1000 nM | EC50 [3]: < 1000 nM

C=CC(=O)NCC1CN(c2ccc(C(F)(F)F)cc2)c2ccccc2N1C (stereo not drawn) [compound 17, N-((1-methyl-4-(4-(trifluoromethyl)phenyl)-1,2,3,4-tetrahydroquinoxalin-2-yl)methyl)acrylamide]
EC50 ([1]; Homo sapiens, 144 h): < 1000 nM | IC50 ([2]; Homo sapiens, HEK-293T, 24 h): < 1000 nM | EC50 ([3]; Homo sapiens, 144 h): < 1000 nM

CC(=O)NCC1CN(c2ccc(C(F)(F)F)cc2)c2ccccc2N1 (stereo not drawn) [compound 34, N-((4-(4-(trifluoromethyl)phenyl)-1,2,3,4-tetrahydroquinoxalin-2-yl)methyl)acetamide]
EC50 ([1]; Homo sapiens, 144 h): < 1000 nM | IC50 [2]: < 1000 nM | EC50 ([3]; Homo sapiens, 144 h): < 1000 nM

CC(=O)N[C@@H]1C[C@@H]2CN(c3ccc(C(F)(F)F)cc3)c3ccc(C)nc3N2C1 [compound 107, N-((6aR,8R)-2-methyl-5-(4-(trifluoromethyl)phenyl)-5,6,6a,7,8,9-hexahydropyrido[3,2-e]pyrrolo[1,2-a]pyrazin-8-yl) acetamide]
EC50 ([1]; Homo sapiens, 144 h): < 1000 nM | IC50 ([2]; Homo sapiens, HEK-293T, 24 h): < 1000 nM | EC50 ([3]; Homo sapiens, 144 h): < 1000 nM

CC(=O)N1CCN2c3ncccc3N(c3ccc(C(F)(F)F)cn3)CC2C1 (stereo not drawn) [53-En1, 1-(5-(5-(trifluoromethyl)pyridin-2-yl)-5,6,6a,7,9,10-hexahydro-8H-pyrazino[1,2-a]pyrido[3,2-e]pyrazin-8-yl)ethan-1-one]
EC50 ([1]; Homo sapiens, 144 h): < 1000 nM | IC50 [2]: < 1000 nM | EC50 ([3]; Homo sapiens, 144 h): < 1000 nM

NC(=O)C1CCN2c3ccccc3N(c3ccc(C(F)(F)F)cc3)CC2C1 (stereo not drawn) [117B-En2, (cis)- or (trans)-5-(4-(trifluoromethyl)phenyl)-6,6a,7,8,9,10-hexahydro-5H-pyrido[1,2-a]quinoxaline-8-carboxamide]
EC50 ([1]; Homo sapiens, 144 h): < 1000 nM | IC50 [2]: < 1000 nM | EC50 ([3]; Homo sapiens, 144 h): < 1000 nM

Cc1ccc2c(n1)N1CCC(C(=O)O)CC1CN2c1ccc(C(F)(F)F)cc1 [101-D2, (6aS,8S)— or (6aR,8S)— or (6aR,8R)— or (6aS,8R)-2-methyl-5-(4-(trifluoromethyl)phenyl)-6,6a,7,8,9,10-hexahydro-5H-dipyrido[1,2-a:3′,2′-e]pyrazine-8-carboxylic acid]
EC50 ([1]; Homo sapiens, 144 h): < 1000 nM | IC50 [2]: < 1000 nM | EC50 ([3]; Homo sapiens, 144 h): < 1000 nM

FC(F)(F)c1ccc(N2CCN(Cc3cn[nH]c3)c3ccccc32)cc1 [compound 63, 1-((1H-pyrazol-4-yl)methyl)-4-(4-(trifluoromethyl)phenyl)-1,2,3,4-tetrahydroquinoxaline]
EC50 ([1]; Homo sapiens, 144 h): < 1000 nM | IC50 ([2]; Homo sapiens, HEK-293T, 24 h): < 1000 nM | EC50 ([3]; Homo sapiens, 144 h): < 1000 nM

C=CC(=O)NC[C@H]1CN(c2ccc(C(F)(F)F)cc2)c2cccnc2N1 [38-En1, (S)—N-((1-(4-(trifluoromethyl)phenyl)-1,2,3,4-tetrahydropyrido[2,3-b]pyrazin-3-yl)methyl)acrylamide]
EC50 ([1]; Homo sapiens, 144 h): < 1000 nM | IC50 ([2]; Homo sapiens, HEK-293T, 24 h): < 1000 nM | EC50 ([3]; Homo sapiens, 144 h): < 1000 nM

CC(=O)NCC1CN(c2ccc(C(F)(F)F)cc2)c2cc(Cl)cnc2O1 (single isomer, unassigned) [75-En2, (R)- or (S)-N-((7-chloro-1-(4-(trifluoromethyl)phenyl)-2,3-dihydro-1H-pyrido[2,3-b][1,4]oxazin-3-yl)methyl)acetamide]
EC50 ([1]; Homo sapiens, 144 h): < 1000 nM | IC50 [2]: < 1000 nM | EC50 ([3]; Homo sapiens, 144 h): < 1000 nM

C=CC(=O)N1CCN2C(=O)CN(c3ccc(C(F)(F)F)cc3)CC2C1 (stereo not drawn) [compound 37, 8-acryloyl-2-(4-(trifluoromethyl)phenyl)octahydro-4H-pyrazino[1,2-a]pyrazin-4-one]
EC50 ([1]; Homo sapiens, 144 h): < 1000 nM | IC50 ([2]; Homo sapiens, HEK-293T, 24 h): < 1000 nM | EC50 ([3]; Homo sapiens, 144 h): < 1000 nM

CNS(=O)(=O)N[C@@H]1C[C@@H]2CN(c3ccc(C(F)(F)F)cc3)c3cccnc3N2C1 [compound 86, N-((6aR,8R)-5-(4-(trifluoromethyl)phenyl)-5,6,6a,7,8,9-hexahydropyrido[3,2-e]pyrrolo[1,2-a]pyrazin-8-yl), N′-methylsulfuric diamide]
EC50 ([1]; Homo sapiens, 144 h): 1000 to 10000 nM | IC50 ([2]; Homo sapiens, HEK-293T, 24 h): < 1000 nM | EC50 ([3]; Homo sapiens, 144 h): > 10000 nM
